Test results reported in ChEMBL document CHEMBL4483862, “Open-source discovery of chemical leads for next-generation chemoprotective antimalarials” (2018).

Test system: Plasmodium berghei
Experiment: Luciferase/luciferin-expressing antifolate-resistant parasites were used to infect a culture of HepG2 cells that were pre-incubated with compounds. Infected hepatocytes emit light due to the luciferase reaction. Assay results are presented as the percent inhibition of light emission compared to control. […]
Type: functional
Details: sporozoite; for IC90: read-out: LUCIFERASE INFECTION ASSAY - IC90
[1] = read-out: LUCIFERASE INFECTION ASSAY - IC50

Row | SMILES | IC90 | IC50 [1] | further results
1 | c1ccc(CCCNc2nnnn2-c2ccccc2)cc1 | > 10 µM |  | IC50 (PBLUC_HILL_SLOPE 1.25, PBLUC_R_SQUARED 0.199, read-out: LUCIFERASE INFECTION ASSAY - IC50): 6.08 µM
2 | O=C(/C=C/c1ccc(-n2nncc2-c2ccccc2)cc1)c1ccccc1 | > 10 µM |  | IC50 (HEPG2TOX_HILL_SLOPE 8.1, HEPG2TOX_R_SQUARED 0.474, PBLUC_HILL_SLOPE 4.46, PBLUC_R_SQUARED 0.811, read-out: LUCIFERASE INFECTION ASSAY - IC50): 6.74 µM
3 | O=S(=O)(c1ccc(C(F)(F)F)cn1)c1cccs1 | > 11.3 µM |  | IC50 (PBLUC_HILL_SLOPE 0.531, PBLUC_R_SQUARED 0.132, read-out: LUCIFERASE INFECTION ASSAY - IC50): > 11.3 µM
4 | CN(C)CCNC(=O)c1ccc(-c2cn3c(-c4ccc5c(ccn5C)c4)cnc3cn2)cc1 | > 7.53 µM |  | IC50 (PBLUC_HILL_SLOPE 3.24, PBLUC_R_SQUARED 0.242, read-out: LUCIFERASE INFECTION ASSAY - IC50): > 7.53 µM
5 | Fc1ccc(CNc2ncnc3ccsc23)cc1 | > 10 µM |  | IC50 (HEPG2TOX_HILL_SLOPE 12.4, 1.24, HEPG2TOX_R_SQUARED 0.688, 0.830, PBLUC_HILL_SLOPE 1.50, 7.58, PBLUC_R_SQUARED 0.332, 0.354, read-out: LUCIFERASE INFECTION ASSAY - IC50): 6.82 µM
6 | N#CCCNS(=O)(=O)c1ccc(C(=O)Nc2ccc(Nc3ccccc3)cc2)cc1 | 3.71 µM |  | IC50 (HEPG2TOX_HILL_SLOPE 10.9, HEPG2TOX_R_SQUARED 0.158, PBLUC_HILL_SLOPE 11.4, PBLUC_R_SQUARED 0.555, read-out: LUCIFERASE INFECTION ASSAY - IC50): 3.06 µM
7 | Nc1nccnc1C(=O)NNC(=O)c1cccc(C(F)(F)F)c1 | 7.02 µM |  | IC50 (HEPG2TOX_HILL_SLOPE 7.79, HEPG2TOX_R_SQUARED 0.494, PBLUC_HILL_SLOPE 4.8, PBLUC_R_SQUARED 0.215, read-out: LUCIFERASE INFECTION ASSAY - IC50): 4.44 µM
8 | CO/N=C1\CC(C)(C)Cc2c(-c3ccn(S(=O)(=O)c4ccccc4Cl)n3)sc(SC)c21 | > 6.65 µM | > 6.65 µM | 
9 | Cc1ccc(OCC(=O)N(Cc2ccccc2)c2c(N)n(Cc3ccccc3)c(=O)[nH]c2=O)c(C)c1 | > 10 µM |  | IC50 (PBLUC_HILL_SLOPE 0.649, PBLUC_R_SQUARED 0.141, read-out: LUCIFERASE INFECTION ASSAY - IC50): > 10 µM
10 | COc1ccc(Cc2n[nH]c(Nc3cccc(Cl)c3)nc2=O)cc1 | 1.36 µM | 1.11 µM | 
11 | CC(C)(C)c1ccc(NC(=O)c2sc3nc4c(c(-c5cccnc5)c3c2N)CCC4)cc1 | > 7.46 µM | > 7.46 µM | 
12 | C/C(=N\Nc1nc2ccccc2[nH]1)c1ccc(N2CCOCC2)cc1 | > 10 µM | > 10 µM | 
13 | O=C(Nc1ccc2c(c1)OC(F)(F)O2)c1ccc(F)c(F)c1 | > 10 µM | 9.62 µM | 
14 | COc1ccc(OC)c(NC(=O)c2cc(-c3ccccc3)nn2-c2ccccc2)c1 | > 10 µM | > 10 µM | 
15 | O=C(NCCSCc1csc2ccc(Cl)cc12)Nc1ccccc1 | > 8.75 µM |  | IC50 (PBLUC_HILL_SLOPE 14.3, PBLUC_R_SQUARED 0.456, read-out: LUCIFERASE INFECTION ASSAY - IC50): 8.24 µM
16 | COc1cc(Nc2nccn3c(-c4ccc(OC(F)(F)F)cc4)cnc23)cc(OC)c1OC | 4.53 µM |  | IC50 (HEPG2TOX_HILL_SLOPE 16.8, HEPG2TOX_R_SQUARED 0.492, PBLUC_HILL_SLOPE 4.79, PBLUC_R_SQUARED 0.767, read-out: LUCIFERASE INFECTION ASSAY - IC50): 2.86 µM
17 | CCOC(=O)/C(=N\Nc1cccc(C(F)(F)F)c1)NC(C)c1ccccc1 (stereo not given) | > 10 µM |  | IC50 (PBLUC_HILL_SLOPE 1.36, PBLUC_R_SQUARED 0.117, read-out: LUCIFERASE INFECTION ASSAY - IC50): > 10 µM
18 | COCCNC(=O)CN(C)S(=O)(=O)c1ccc2c(c1)CCC(=O)N2 | > 10 µM | > 10 µM | 
19 | C/C=C(/C(=C/C)c1ccc(O)cc1)c1ccc(O)cc1 [DIENESTROL] | > 12.4 µM |  | IC50 (FFLUC_HILL_SLOPE 1.35, FFLUC_R_SQUARED 0.489, HEPG2TOX_HILL_SLOPE 1.17, HEPG2TOX_R_SQUARED 0.908, PBLUC_HILL_SLOPE 0.733, PBLUC_R_SQUARED 0.69, read-out: LUCIFERASE INFECTION ASSAY - IC50): 1.24 µM
20 | O=C(Nc1ccccc1C(=O)OCCC(F)(F)F)c1ccccc1 | > 10 µM | > 10 µM | 
21 | CC(OC(=O)c1cc2c(s1)-c1ccccc1OC2)C(=O)N1CCNC1=O (stereo not given) | > 10 µM |  | IC50 (PBLUC_HILL_SLOPE 18.2, PBLUC_R_SQUARED 0.638, read-out: LUCIFERASE INFECTION ASSAY - IC50): 9.62 µM
22 | Cc1cc(C)cc(-n2c(C)cc(C(=O)CNC(=O)NCc3ccccc3)c2C)c1 | 3.27 µM |  | IC50 (HEPG2TOX_HILL_SLOPE 1.59, HEPG2TOX_R_SQUARED 0.958, PBLUC_HILL_SLOPE 2.43, PBLUC_R_SQUARED 0.455, read-out: LUCIFERASE INFECTION ASSAY - IC50): 1.32 µM
23 | CN(C)c1ccc(C(=O)/C=C/c2ccccc2C(F)(F)F)cc1 | 3.94 µM |  | IC50 (HEPG2TOX_HILL_SLOPE 2.82, HEPG2TOX_R_SQUARED 0.851, PBLUC_HILL_SLOPE 15.9, PBLUC_R_SQUARED 0.328, read-out: LUCIFERASE INFECTION ASSAY - IC50): 3.43 µM

Row | SMILES | IC90 | IC50 [1] | further results
24 | CN(C(=O)CCc1cc(C(C)(C)C)c(O)c(C(C)(C)C)c1)C1CCS(=O)(=O)C1 (stereo not given) | > 10 µM | > 10 µM | 
25 | CNc1nc2cnc(Nc3cccc(C)c3)cc2n1-c1cc(OC)c(OC)c(OC)c1 | > 10 µM | > 10 µM | 
26 | CC(C)(C)c1nc(-c2ccc(N)cc2)no1 | 9.21 µM |  | IC50 (HEPG2TOX_HILL_SLOPE 0.127, HEPG2TOX_R_SQUARED 0.315, PBLUC_HILL_SLOPE 1.58, PBLUC_R_SQUARED 0.494, read-out: LUCIFERASE INFECTION ASSAY - IC50): 2.28 µM
27 | O=C(Nc1ncccc1O)c1ccc(-c2ccc3c(c2)OCCO3)s1 | > 10 µM | 7.42 µM | 
28 | COC(=O)c1ccc(-c2cnc3ccc(NCc4cccc(Cl)c4)nn23)cc1 | > 8.4 µM |  | IC50 (PBLUC_HILL_SLOPE 14.1, PBLUC_R_SQUARED 0.0198, read-out: LUCIFERASE INFECTION ASSAY - IC50): 7.46 µM
29 | CC1CCc2c(sc3ncnc(NCC(c4ccccc4)N(C)C)c23)C1 (stereo not given) | > 10 µM | > 10 µM | 
30 | Cc1cccc(C(=O)Nc2ccc(N3CCc4sccc4C3)nc2)c1[N+](=O)[O-] | > 10 µM |  | IC50 (HEPG2TOX_HILL_SLOPE 2.87, HEPG2TOX_R_SQUARED 0.919, PBLUC_HILL_SLOPE 1.54, PBLUC_R_SQUARED 0.645, read-out: LUCIFERASE INFECTION ASSAY - IC50): 2.52 µM
31 | Fc1cccc(Cl)c1CSc1nnc(-c2cc(C(F)(F)F)cc(C(F)(F)F)c2)[nH]1 | > 7.24 µM |  | IC50 (PBLUC_HILL_SLOPE 6.81, PBLUC_R_SQUARED 0.556, read-out: LUCIFERASE INFECTION ASSAY - IC50): > 7.24 µM
32 | CN(C)c1ccccc1-c1cn2c(-c3ccc(CO)cc3)cnc2cn1 | > 9.58 µM |  | IC50 (HEPG2TOX_HILL_SLOPE 4.17, HEPG2TOX_R_SQUARED 0.686, PBLUC_HILL_SLOPE 6.79, PBLUC_R_SQUARED 0.489, read-out: LUCIFERASE INFECTION ASSAY - IC50): 8.57 µM
33 | O=C(Nc1nc2ccccn2c1C(=O)NC1CCCCC1)c1c(F)ccc(F)c1F | > 7.93 µM | > 7.93 µM | 
34 | NC(Cc1ccccc1)c1csc(NC(=O)Nc2ccccc2-c2ccccc2)n1 (stereo not given) | > 7.96 µM | > 7.96 µM | 
35 | CC(C)N1C(=O)N(CCc2ccccc2)C2(CCN(C3Cc4ccccc4C3)CC2)C1=O | > 7.65 µM | 6.55 µM | 
36 | FC(F)(F)c1csc(Nc2ccc(Cl)c(Cl)c2)n1 | > 10.5 µM | 10.4 µM | 
37 | CCc1ccccc1Nc1c(Cl)c(C)nc2ncnn12 | > 11.5 µM |  | IC50 (HEPG2TOX_HILL_SLOPE 1.69, HEPG2TOX_R_SQUARED 0.869, PBLUC_HILL_SLOPE 4.69, PBLUC_R_SQUARED 0.317, read-out: LUCIFERASE INFECTION ASSAY - IC50): 7.45 µM
38 | Cc1oc2c(c1C(=O)NC(C)(C)C)C(=O)c1ccccc1C2=O | 4.63 µM |  | IC50 (HEPG2TOX_HILL_SLOPE 2.79, HEPG2TOX_R_SQUARED 0.986, PBLUC_HILL_SLOPE 0.957, PBLUC_R_SQUARED 0.592, read-out: LUCIFERASE INFECTION ASSAY - IC50): 0.466 µM
39 | O=C1NC2=C(C(=O)N(CCC3=CCCCC3)C2)C(c2ccc(F)cc2)N1 (stereo not given) | > 10 µM | > 10 µM | 
40 | Cc1ccccc1C(=O)Nc1nc2ccccn2c1C(=O)NC1CCCCC1 | > 8.77 µM |  | IC50 (HEPG2TOX_HILL_SLOPE 2.99, HEPG2TOX_R_SQUARED 0.96, PBLUC_HILL_SLOPE 20.4, PBLUC_R_SQUARED 0.198, read-out: LUCIFERASE INFECTION ASSAY - IC50): 7.88 µM
41 | CCn1c(=O)n(Cc2cc(Cl)c3c(c2)OCO3)c2ccccc21 | > 10 µM | > 10 µM | 
42 | Cc1ccccc1-n1c(SCC(=O)NC2CCCCC2)nc(O)cc1=O | 3.36 µM |  | IC50 (PBLUC_HILL_SLOPE 12.2, PBLUC_R_SQUARED 0.38, read-out: LUCIFERASE INFECTION ASSAY - IC50): 2.81 µM
43 | CC(=O)Nc1cccc(Nc2cc3c(cn2)ncn3CC2CC2)c1 | > 10 µM |  | IC50 (HEPG2TOX_HILL_SLOPE 2.64, HEPG2TOX_R_SQUARED 0.966, PBLUC_HILL_SLOPE 2.21, PBLUC_R_SQUARED 0.507, read-out: LUCIFERASE INFECTION ASSAY - IC50): 6.65 µM
44 | C/C(=N\OC(=O)Nc1ccccc1)c1sc2nc(C(F)(F)F)nn2c1C | > 8.61 µM | > 8.61 µM | 
45 | CC(C)(C)c1ccc(NC(=O)c2cc(-c3ccccc3)ncn2)cc1 | > 9.96 µM |  | IC50 (PBLUC_HILL_SLOPE 1.26, PBLUC_R_SQUARED 0.612, read-out: LUCIFERASE INFECTION ASSAY - IC50): 2.29 µM
